# Test results: publication PMC5513091, “A novel Alzheimer’s disease drug candidate targeting inflammation and fatty acid metabolism” (Alzheimer's Research & Therapy, 2017)
# Legend:
# [1] = system: APPswe/PS1∆E9 mice; experiment: Elevated plus maze; assay type: in vivo; conditions: AD mice fed 200 ppm in chow for 3 months from 10 months of age
# Procedure: (§1) The APPswe/PS1∆E9-transgenic mice were characterized previously. Line 85 mice carry two transgenes, the mouse/human chimeric APPswe, linked to Swedish familial AD and human PS1∆E9. At 10 months of age, female transgenic mice were fed a defined diet (Harlan Teklad; Envigo, Indianapolis, IN, USA) with and without CAD-31 (200 ppm, approximately 10 mg/kg/day). Treatment continued for 3 months, followed by behavior testing and tissue harvesting.
# The elevated plus maze is used to analyze the anxiety response of mice. This test relies upon the tendency of mice to have a fear of heights and to navigate toward dark, enclosed spaces and remain there. Our maze is made of gray plastic and consists of four arms (two open without walls and two enclosed by 15.25-cm-high walls) that are 30 cm long and 5 cm wide in the shape of a plus sign. A video tracking system (EthoVision; Noldus Information Technology) is used to automatically collect behavioral data. Mice are habituated to the room 24 h before testing. Mice are also habituated to the maze for 2 minutes before testing by placing them in the center of the maze and blocking entry to the arms. Mice were tested in the maze for a 5-minute period. The anxiety of mice was measured by comparing the time spent in the open arms with time spent in the closed arms. Statistics were computed using GraphPad InStat software.
# [2] = system: APPswe/PS1∆E9 mice; experiment: Fear-conditioning assay; assay type: in vivo; conditions: AD mice fed 200 ppm in chow for 3 months from 10 months of age; day 2
# Procedure: as §1
# Fear conditioning to either a cue or a context represents a form of associative learning. The readout that is measured in contextual and cued fear conditioning is a freezing response that occurs following the pairing of an unconditioned stimulus, such as a foot shock, with a conditioned stimulus, such as a particular context or cue (tone). The mouse will freeze if it remembers and associates that environment with the aversive stimulus. The hippocampus and the amygdala are required for fear memory, where the hippocampus is involved in the formation and retrieval of context fear associations and the amygdala is involved in conditioning and recall of associations to contextual and discrete cues. […] On day 2, the time spent freezing is measured over the entire time in the chamber. […] The percentage of time spent freezing by each mouse is averaged per group, and then groups can be compared and p values calculated to determine statistical significance.
# [3] = target: CYP 2Cb (Homo sapiens, UniProt P11712); experiment: CYP inhibition; assay type: in vitro ADME
# Sequence of CYP 2Cb (P11712 whole entry): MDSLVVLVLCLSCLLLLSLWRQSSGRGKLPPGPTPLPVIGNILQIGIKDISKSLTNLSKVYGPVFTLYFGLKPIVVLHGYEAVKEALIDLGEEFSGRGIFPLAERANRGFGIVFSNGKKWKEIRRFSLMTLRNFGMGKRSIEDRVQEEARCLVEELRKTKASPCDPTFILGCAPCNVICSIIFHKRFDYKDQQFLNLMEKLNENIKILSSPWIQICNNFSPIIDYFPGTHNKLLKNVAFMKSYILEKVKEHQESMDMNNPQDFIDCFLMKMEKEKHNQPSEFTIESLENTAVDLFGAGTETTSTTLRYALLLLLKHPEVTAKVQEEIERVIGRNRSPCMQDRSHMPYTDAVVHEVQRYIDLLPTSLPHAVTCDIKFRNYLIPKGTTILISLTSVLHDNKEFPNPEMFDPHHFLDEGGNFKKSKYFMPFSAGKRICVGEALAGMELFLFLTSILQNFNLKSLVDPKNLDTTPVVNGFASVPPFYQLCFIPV
# [4] = system: Aβ plaque; design: method as in PMID 27149904; conditions: early study; cited from earlier work
# [5] = target: CYP 1A2 (Homo sapiens, UniProt P05177); experiment: CYP inhibition; assay type: in vitro ADME
# Sequence of CYP 1A2 (P05177 whole entry): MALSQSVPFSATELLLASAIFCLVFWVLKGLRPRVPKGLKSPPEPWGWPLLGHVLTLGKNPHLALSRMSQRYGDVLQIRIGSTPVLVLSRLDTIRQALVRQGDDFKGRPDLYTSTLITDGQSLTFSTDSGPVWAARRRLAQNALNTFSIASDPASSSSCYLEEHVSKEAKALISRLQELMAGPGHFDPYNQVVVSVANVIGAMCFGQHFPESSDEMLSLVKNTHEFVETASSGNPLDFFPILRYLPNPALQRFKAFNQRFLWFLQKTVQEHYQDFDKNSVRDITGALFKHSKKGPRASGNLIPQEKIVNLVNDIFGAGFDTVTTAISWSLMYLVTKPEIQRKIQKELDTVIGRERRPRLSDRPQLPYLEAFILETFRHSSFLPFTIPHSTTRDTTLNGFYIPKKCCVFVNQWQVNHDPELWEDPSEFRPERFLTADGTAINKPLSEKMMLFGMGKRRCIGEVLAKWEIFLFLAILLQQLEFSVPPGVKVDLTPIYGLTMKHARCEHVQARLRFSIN
smiles,measurement,setting,value
Cc1ccc(N(/N=C/c2cccc(OC(F)(F)F)c2)C(=O)C(F)(F)F)c(C)c1 [CAD-31],time spent on the open arm (disinhibition phenotype),[1],completely rescued to age-matched WT levels
same,time freezing in response to the context,[2],more time freezing in response to the context
same,EC50 at 10 µM,[3],> 10 µM
same,Aβ plaque density or size,[4],no effect on Aβ plaque density or size
same,EC50 at 10 µM,[5],> 10 µM
